In US12358960B2, “Selective targeting of ubiquitin- and ubiquitin-like E1-activating enzymes by structurally-stabilized peptides” (Dana-Farber Cancer Institute, Inc., priority 2019, dated 2025):
“Also recorded” adds a separate entry of the source. Bridge positions count the residues as written; N and C are the ends. Square brackets hold non-standard residues; d marks the D form. Peptide text beside a SMILES is read from it. R8 = C=CCCCCCC[C@@](C)(N)C(=O)O; S5 = C=CCCC[C@](C)(N)C(=O)O; Nle = CCCC[C@H](N)C(=O)O

Key:
[1] = tested on: HeLa S100 lysate fraction, polyubiquitin chains; assay: Cellular lysate enzyme inhibition (ubiquitination) assay; type: biochemical; details: excess ubiquitin, ATP regeneration solution, vs vehicle
Description: Cellular Lysate Enzyme Inhibition Assays: Cellular lysate assays were performed with 1 mg/mL final concentration HeLa S100 lysate fraction and the indicated concentration of peptide or DMSO vehicle control in an assay buffer containing 1×ATP regeneration solution, 20 mM HEPES, 50 mM NaCl, 5 mM MgCl2, 2 mM DTT, 100 nM ubiquitin aldehyde, and a protease-phosphatase inhibitor cocktail at pH 7.4. Reactions were initiated by addition of ubiquitin to a final concentration of 100 μM and allowed to proceed for 30 minutes at room temperature, followed by quenching with non-reducing LDS loading buffer. Proteins were separated by SDS-PAGE gel electrophoresis and detected by western blot against polyubiquitin (Cell Signaling Technology CST3936).

UBA1 = molecular target: T1, UBA1 (Homo sapiens, UniProt P22314); assay: Fluorescence polarization binding assay; details: presence and absence of ubiquitin and ATP
T1 sequence (P22314 1-1058): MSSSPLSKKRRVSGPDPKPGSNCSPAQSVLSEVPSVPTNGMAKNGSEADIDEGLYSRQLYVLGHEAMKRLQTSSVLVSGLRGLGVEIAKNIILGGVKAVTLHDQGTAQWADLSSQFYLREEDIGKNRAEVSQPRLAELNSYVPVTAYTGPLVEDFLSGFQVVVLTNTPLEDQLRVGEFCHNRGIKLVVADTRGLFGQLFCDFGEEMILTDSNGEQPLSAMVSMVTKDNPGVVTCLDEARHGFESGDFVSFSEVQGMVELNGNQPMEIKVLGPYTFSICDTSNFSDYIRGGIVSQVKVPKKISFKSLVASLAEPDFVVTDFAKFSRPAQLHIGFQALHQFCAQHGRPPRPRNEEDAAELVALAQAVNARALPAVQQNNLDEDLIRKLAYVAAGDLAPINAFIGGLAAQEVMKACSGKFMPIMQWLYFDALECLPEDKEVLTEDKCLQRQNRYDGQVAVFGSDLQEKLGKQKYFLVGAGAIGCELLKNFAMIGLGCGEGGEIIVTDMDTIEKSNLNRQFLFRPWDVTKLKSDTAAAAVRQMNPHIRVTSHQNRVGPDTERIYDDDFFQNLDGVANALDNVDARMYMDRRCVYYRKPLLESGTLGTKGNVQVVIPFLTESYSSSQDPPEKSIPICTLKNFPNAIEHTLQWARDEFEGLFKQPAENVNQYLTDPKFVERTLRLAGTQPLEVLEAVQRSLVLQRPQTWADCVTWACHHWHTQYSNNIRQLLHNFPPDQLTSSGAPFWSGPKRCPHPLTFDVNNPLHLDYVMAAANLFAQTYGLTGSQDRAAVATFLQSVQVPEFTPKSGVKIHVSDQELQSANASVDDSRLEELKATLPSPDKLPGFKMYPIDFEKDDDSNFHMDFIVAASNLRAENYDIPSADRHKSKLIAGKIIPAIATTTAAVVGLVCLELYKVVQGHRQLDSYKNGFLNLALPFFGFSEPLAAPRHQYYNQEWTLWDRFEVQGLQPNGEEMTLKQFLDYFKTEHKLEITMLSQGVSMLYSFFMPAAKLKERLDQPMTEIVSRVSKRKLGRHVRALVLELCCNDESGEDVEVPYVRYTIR
Text: (§1) In vitro Binding Assays: To assess the binding and affinity of peptidomimetic macrocycles and peptidomimetic precursors to acceptor proteins, a fluorescence polarization assay (FPA) can be used, for example. The FPA technique measures the molecular orientation and mobility using polarized light and fluorescent tracer. When excited with polarized light, fluorescent tracers (e.g., FITC) attached to molecules with high apparent molecular weights (e.g., FITC-labeled peptides bound to a large protein) emit higher levels of polarized fluorescence due to their slower rates of rotation as compared to fluorescent tracers attached to smaller molecules (e.g., FITC-labeled peptides that are free in solution).
as §1, with “ligands” for “peptidomimetic macrocycles and peptidomimetic precursors”

[2] = Circular dichroism, α-helicity; type: physicochemical; details: in solution
Description: Assays to Determine α-Helicity: Compounds are dissolved in an aqueous solution (e.g., 5 mM potassium phosphate solution at pH 7, or distilled H2O, to concentrations of 25-50 μM). Circular dichroism (CD) spectra are obtained on a spectropolarimeter (e.g., Jasco J-710, Aviv) using standard measurement parameters (e.g., temperature, 20° C.; wavelength, 190-260 nm; step resolution, 0.5 nm; speed, 20 nm/sec; accumulations, 10; response, 1 sec; bandwidth, 1 nm; path length, 0.1 cm). The α-helical content of each peptide is calculated by dividing the mean residue ellipticity by the reported value for a model helical decapeptide (Yang et al., Methods Enzymol. 130:208 (1986)).
Circular Dichroism: Acetylated peptides were dissolved in 10% (vol/vol) acetonitrile in water for circular dichroism analyses, performed on an Aviv Biomedical spectrophotometer, as reported (see Bird et. al., Methods in Enzymol., 446:369-386 (2008)).

[3] = molecular target: T2, deubiquitinase enzyme USP7 (Homo sapiens, UniProt Q93009); assay: Deubiquitination of p53 by USP7 in the reconstitution assay; type: biochemical; details: peptide 30 μM
T2 construct: purchased BostonBiochem E-519
Description: In Vitro Ubiquitin Pathway Reconstitution Assay: Reactions containing recombinant His-p53 (0.1 μM), in the presence or absence of peptide (30 μM), UBA1 (0.1 μM), UBE2D (1 μM), HDM2 (1 μM), ubiquitin (1 μM) and ATP (10 mM) (all Boston Biochem K-200B), preactivated Ub-UBEA2 (3 μM) (Boston Biochem E2-802), and USP7 (1 μM) (BostonBiochem E-519), as indicated, were mixed and incubated for 2 h at 37° C. in a final volume of […] followed by denaturation by boiling in SDS-containing loading dye for 10 min at 90° C. Samples were resolved by […] gel electrophoresis and transferred to nitrocellulose membrane. Membranes were blocked with 3% milk for 1 h, incubated overnight in PBS containing 3% BSA and mouse p53 antibody (Boston Biochem K-200B) at a 1:1000 dilution, washed in PBS containing 0.1% Tween-20, and then incubated in PBS containing 3% BSA and anti-mouse secondary antibody (BioRad AAC10P) at a 1:5000 dilution for 1 hour at room temperature. Membranes were again washed in PBS containing 0.1% Tween-20 and imaged using Amersham ECL Prime (GE Life Sciences) on an Amersham Imager 680 (GE Life Sciences).

T2 sequence (Q93009 whole entry): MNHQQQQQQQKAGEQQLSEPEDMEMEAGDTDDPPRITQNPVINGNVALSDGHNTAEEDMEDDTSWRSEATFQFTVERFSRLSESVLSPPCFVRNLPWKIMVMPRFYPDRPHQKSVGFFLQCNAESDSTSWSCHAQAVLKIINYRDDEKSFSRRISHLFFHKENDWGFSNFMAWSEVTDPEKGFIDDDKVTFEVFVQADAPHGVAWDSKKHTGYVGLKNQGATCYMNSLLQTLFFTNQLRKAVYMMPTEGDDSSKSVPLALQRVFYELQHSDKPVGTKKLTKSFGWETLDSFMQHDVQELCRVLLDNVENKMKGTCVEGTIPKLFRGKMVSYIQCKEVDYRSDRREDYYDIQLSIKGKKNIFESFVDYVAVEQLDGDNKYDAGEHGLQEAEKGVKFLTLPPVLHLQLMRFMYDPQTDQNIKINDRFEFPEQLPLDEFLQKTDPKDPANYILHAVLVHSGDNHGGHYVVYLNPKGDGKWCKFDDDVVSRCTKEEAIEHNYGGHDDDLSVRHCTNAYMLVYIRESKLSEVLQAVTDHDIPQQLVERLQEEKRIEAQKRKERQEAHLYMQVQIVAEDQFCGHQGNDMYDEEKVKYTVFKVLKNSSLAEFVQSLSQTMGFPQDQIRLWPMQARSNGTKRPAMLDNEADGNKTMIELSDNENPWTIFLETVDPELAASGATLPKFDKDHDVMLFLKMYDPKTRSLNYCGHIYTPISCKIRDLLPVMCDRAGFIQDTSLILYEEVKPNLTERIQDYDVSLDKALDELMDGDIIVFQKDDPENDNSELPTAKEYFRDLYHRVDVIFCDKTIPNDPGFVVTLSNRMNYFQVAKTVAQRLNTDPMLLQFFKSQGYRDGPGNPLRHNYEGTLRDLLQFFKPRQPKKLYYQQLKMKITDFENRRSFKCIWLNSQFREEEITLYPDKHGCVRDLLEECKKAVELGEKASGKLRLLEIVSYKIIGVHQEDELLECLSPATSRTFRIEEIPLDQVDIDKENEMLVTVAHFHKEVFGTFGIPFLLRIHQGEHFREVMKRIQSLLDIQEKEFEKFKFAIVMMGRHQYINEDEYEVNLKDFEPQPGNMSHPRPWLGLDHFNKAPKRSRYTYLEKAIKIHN

Compound: CCCC[C@H](NC(C)=O)C(=O)N[C@@H](CO)C(=O)N[C@H](C(=O)N1CCC[C@H]1C(=O)N[C@]1(C)CCCCCCC=CCCC[C@@](C)(C(=O)N[C@@H](Cc2ccccc2)C(=O)N[C@@H](CCCCN)C(=O)N[C@@H](CCCNC(=N)N)C(=O)N[C@@H](CC(C)C)C(=O)N[C@@H](CCC(N)=O)C(N)=O)NC(=O)[C@H](CCCNC(=N)N)NC(=O)[C@H](CCCC)NC(=O)[C@H](CC(C)C)NC(=O)[C@H](CCCNC(=N)N)NC(=O)[C@H](CCCNC(=N)N)NC(=O)[C@H](CCCNC(=N)N)NC1=O)[C@@H](C)O [SAH-UBE2A-11, BSTPX1RRRLBRX2FKRLQ] (Ac-[Nle]STP[R8]RRRL[Nle]R[S5]FKRLQ-NH2; staple 5-12)
- formation of polyubiquitin chains in HeLa cell cytoplasmic fraction [1]: dose-dependently inhibited formation of polyubiquitin chains
- direct binding to recombinant UBA1, fluorescence polarization (UBA1): binds to UBA1 independent of ubiquitin and ATP; also recorded: direct binding of SAH-UBE2A to recombinant UBA1
- helicity / helical content [2]: 54%
- activity of deubiquitinase USP7 against p53 [3]: no effect on the activity of the deubiquitinase enzyme USP7 against p53
- activity of deubiquitinase USP7 against p53 ([3]; listed as SAH-UBE2A): regardless of SAH-UBE2A presence
